Results published in paper PMC7672115 (Scientific Reports, 2020).
Where two headings read alike, the source gives them in different places.

Key:
SARS-CoV-2 [1] = assay: microbe, parasite or virus in culture; format: cell-based; conditions: for %Inhibition at 10 µM: purified compounds
Vero E6 cells = assay: in vitro; format: cell-based; conditions: Vero E6, post-infection treatment setting, 48 h
Description: (§1) Cells were seeded on 96-well plates at 5 × 10^4 cells/well and treated with various concentrations of the extracts or purified compounds for 48 h. Cell viability was evaluated by an MTT colorimetric assay. In brief, the medium was replaced with MTT [3-(4,5-dimethylthiazol-2-yl)-2,5-diphenyltetrazolium bromide] (Sigma-Aldrich, USA) and incubated for 4 h at 37 °C in a humidified incubator with 5% CO2. The formazan crystal was dissolved with DMSO (Merck, Germany) and measured at a wavelength of 570 nm by EnVision Multilabel Reader (PerkinElmer, USA). Data was normalized versus the solvent control, and then CC50 values were calculated using GraphPad Prism 7.

SARS-CoV-2 [2] = conditions: for SI (CC50/IC50): post-infection, Vero E6
in vitro [3] = format: cell-based
Description: as §1

SARS-CoV-2 [4] = assay: microbe, parasite or virus in culture; format: cell-based; conditions: for IC50: read-out: IC50 (plaque reduction assay); for concentration with absolute inhibition of the infectious virion production: post-treatment approach, Vero E6, plaque assay
SARS-CoV-2 [5] = assay: microbe, parasite or virus in culture; conditions: Severe acute respiratory syndrome coronavirus 2, Vero C1008, 48 h, read-out: IC50 (virus inhibition, high-content imaging/IFA)
SARS-CoV-2 [6] = assay: microbe, parasite or virus in culture; format: cell-based
SARS-CoV-2 [7] = assay: microbe, parasite or virus in culture; format: cell-based; remark: listed apart in the source
in vitro [8] = conditions: human
SARS-CoV-2 [9] = assay: microbe, parasite or virus in culture; conditions: Severe acute respiratory syndrome coronavirus 2, Vero C1008, read-out: IC50 (virus inhibition, high-content imaging)
[10] = tested on: HepG2, imHC, HK-2, SH-SY5Y, Caco-2; assay: Cell viability assay (MTT) in various human cell types; format: cell-based; conditions: 0 - 100 µM, 48 h
SARS-CoV-2 [11] = assay: Plaque reduction assay of viral output, pre-entry treatment, Vero E6 cells; format: cell-based
SARS-CoV-2 [12] = conditions: pre-entry, Vero E6
SARS-CoV-2 [13] = assay: microbe, parasite or virus in culture; format: cell-based; conditions: Vero E6
[14] = Cell viability assay (MTT) in Calu-3 cells; conditions: human
[15] = single dose 10 µM, Vero E6, SARS-CoV-2 25TCID50
[16] = Vero E6, post-infection treatment setting, 48 h, read-out: CC50
[17] = Severe acute respiratory syndrome coronavirus 2, Vero C1008, 48 h
[18] = Severe acute respiratory syndrome coronavirus 2, Vero C1008, post-infection treatment, Vero E6, 48 h
[19] = Severe acute respiratory syndrome coronavirus 2, Vero C1008, purified compounds, single dose 10 µM, Vero E6, SARS-CoV-2 25TCID50, read-out: %Inhibition at 10 µM
[20] = Vero E6, pre-entry treatment setting, read-out: CC50

Compound: COc1c(O)cc2oc3cc(O)c(CC=C(C)C)c(O)c3c(=O)c2c1CC=C(C)C [ECDD-NAM, alpha-mangostin]
- %Inhibition at 10 µM (SARS-CoV-2 [1]; [15]): 9.08%

Compound: Ivermectin [reference compound]
- CC50 (Vero E6 cells): 31.7 µM
- IC50 (SARS-CoV-2 [2]; read-out: IC50 (virus inhibition, high-content imaging/IFA), post-infection treatment, Vero E6, 48 h): 12.7 µM

Compound: CCCCCCCCC/C=C/C(=O)CCc1ccc(O)c(OC)c1 [MUC1775, 10-Shogaol]
- %Inhibition at 10 µM (SARS-CoV-2 [1]; [15]): 5.7%

Compound: CCCCC[C@H](O)CC(=O)CCc1ccc(O)c(OC)c1 [6-Gingerol]
- CC50 at 48 h (in vitro [3]; [16]): > 100 µM
- IC50 (SARS-CoV-2 [4]; [17]): 1.38 µM
- IC50 (SARS-CoV-2 [5]): > 100 µM
- inhibition at 10 µM (SARS-CoV-2 [1]; Severe acute respiratory syndrome coronavirus 2, Vero C1008, read-out: %Inhibition at 10 µM): 7.78%
- inhibitory activity against SARS-CoV-2 infection (in words) (SARS-CoV-2 [1]; extract at 10 µg/mL, compound at 10 µM): mild effect

Compound: CCC(CC)COC(=O)[C@H](C)N[P@](=O)(OC[C@H]1O[C@@](C#N)(c2ccc3c(N)ncnn23)[C@H](O)[C@@H]1O)Oc1ccccc1 [Remdesivir, reference compound]
- IC50 (SARS-CoV-2 [6]; Severe acute respiratory syndrome coronavirus 2, Calu-3, read-out: IC50 (virus inhibition, high-content imaging/IFA)): 0.043 µM
- IC50 (SARS-CoV-2 [4]; [17]): 2.65 µM
- IC50 (SARS-CoV-2 [5]): 2.71 µM
- IC50 (SARS-CoV-2 [7]; Severe acute respiratory syndrome coronavirus 2, Calu-3, read-out: IC50 (plaque assay)): 0.086 µM
- CC50 (in vitro [8]): 16 µM

Compound: C=C1CC[C@@H]2[C@](C)(CO)[C@H](O)CC[C@@]2(C)[C@@H]1C/C=C1/C(=O)OC[C@H]1O [Andrographolide]
- CC50 at 48 h (in vitro [3]; African green monkey, CC50): 27.8 µM
- IC50 (SARS-CoV-2 [4]; [18]): 0.28 µM
- concentration with absolute inhibition of the infectious virion production (SARS-CoV-2 [4]): 12.5 µM
- IC50 (SARS-CoV-2 [5]): 6.58 µM
- inhibition at 10 µM (SARS-CoV-2 [1]; [19]): 99.9%
- %Inhibition at 10 µM (SARS-CoV-2 [1]; single dose 10 µM, Vero E6, SARS-CoV-2 25TCID50, listed as ECDD-NAD): 99.97%

Compound: COc1cc(O)c(C(=O)[C@@H]2[C@H](CC=C(C)C)C(C)=CC[C@H]2c2ccccc2)c(O)c1 [Panduratin A]
- CC50 at 48 h (in vitro [3]; [16]): 14.7 µM
- CC50 at 48 h (in vitro [3]; [20]): 43.5 µM
- IC50 (SARS-CoV-2 [6]; Severe acute respiratory syndrome coronavirus 2, post-treatment, Calu-3, read-out: IC50 (virus inhibition, high-content imaging/IFA)): 2.04 µM
- IC50 (SARS-CoV-2 [9]): 5.3 µM
- SI (CC50/IC50) (SARS-CoV-2 [2]): 18.16
- cytotoxicity at the therapeutic window (in words) [10]: no or minimal cytotoxicity
- IC50 (SARS-CoV-2 [4]; [18]): 0.078 µM
- concentration with absolute inhibition of the infectious virion production (SARS-CoV-2 [4]): 5 µM
- IC50 (SARS-CoV-2 [11]; Severe acute respiratory syndrome coronavirus 2, Vero C1008, Vero E6): 7.62 µM
- dose with absolute suppression of the infectious virion production (SARS-CoV-2 [11]; Vero E6, plaque assay): 50 µM
- SI (CC50/IC50) (SARS-CoV-2 [12]): 8.20
- IC50 (SARS-CoV-2 [5]): 0.81 µM
- IC50 (SARS-CoV-2 [7]; Severe acute respiratory syndrome coronavirus 2, post-treatment, Calu-3, read-out: IC50 (plaque assay)): 0.53 µM
- inhibition at 10 µM (SARS-CoV-2 [1]; [19]): 99.9%
- %Inhibition at 10 µM (SARS-CoV-2 [1]; single dose 10 µM, Vero E6, SARS-CoV-2 25TCID50, listed as ECDD-NPA): 99.97%
- antiviral effect (in words) (SARS-CoV-2 [13]; cells treated with extract/compound before viral adsorption): did not exerted a dramatic antiviral effect
- CC50 at 48 h [14]: 43.9 µM

Compound: CCN(CCO)CCCC(C)Nc1ccnc2cc(Cl)ccc12 (stereo not shown) [Hydroxychloroquine, reference compound]
- CC50 at 48 h (in vitro [3]; African green monkey, Vero E6, post-infection treatment setting, 48 h, read-out: CC50): > 100 µM
- CC50 at 48 h (in vitro [3]; African green monkey, Vero E6, pre-infection phase setting, read-out: CC50): > 100 µM
- CC50 at 48 h (in vitro [3]; [20]): > 100 µM
- IC50 (SARS-CoV-2 [9]): 8.07 µM
- SI (CC50/IC50) (SARS-CoV-2 [2]): > 19.68
- IC50 (SARS-CoV-2 [4]; [18]): 0.282 µM
- SI (CC50/IC50) (SARS-CoV-2 [12]): > 12.39
- IC50 (SARS-CoV-2 [5]): 5.08 µM
- IC50 (SARS-CoV-2 [13]; Severe acute respiratory syndrome coronavirus 2, Vero C1008, pre-infection phase, read-out: IC50 (virus inhibition, high-content imaging)): 20.6 µM

Compound: CCCCC/C=C/C(=O)CCc1ccc(O)c(OC)c1 [ECDD-DPM-N97, 6-Shogaol]
- %Inhibition at 10 µM (SARS-CoV-2 [1]; [15]): 12.17%

Compound: CCCCCCC[C@H](O)CC(=O)CCc1ccc(O)c(OC)c1 [ECDD-DPM-N95, 8-Gingerol]
- %Inhibition at 10 µM (SARS-CoV-2 [1]; [15]): 17.59%

Compound: CCCCCCCCC[C@H](O)CC(=O)CCc1ccc(O)c(OC)c1 [ECDD-DPM-N96, 10-Gingerol]
- %Inhibition at 10 µM (SARS-CoV-2 [1]; [15]): 23.51%
